This data set has as its system enucleated skin of a hairless mouse. Kind of data set: Drug permeability test by in vitro diffusion cell. The format is in vitro ADME. Particulars: pH 7.2. The method, then:
A drug permeability test was conducted for amine oxide, which is the product of the present invention.
Pharmaceutical samples comprising the following composition were prepared.
For an evaluation of the percutaneous absorption promoting effect of a drug with the test substance, a drug permeability test was conducted by in vitro diffusion cell, using the enucleated skin of a hairless mouse. As the diffusion cell device, a vertical film type 2-compartment cell with a diffusion area of 2 cm^2 was employed. The whole skin layer at the back of a 10 to 15 weeks old male hairless mouse was enucleated and mounted on a diffusion cell. In the cell compartment on the medicament sample side, 2 ml of a medicament sample was placed, and 2 ml of a phosphate buffer phisiological saline (pH 7.2) was placed in the cell compartment on the receptor side, and the whole cell maintained at 32° C. in a thermostat tank while gently stirring both phases. After 24 hours, the receptor solution was sampled and the amount of the drug permeated by high performance chromatography to the receptor side quantitated.

Here are results for five compounds from patent publication US5500416A, “Percutaneous absorption promoting agent and dermatologic preparation containing the same” (priority 1987, dated 1996).

Take `CCCCCCCCCCCCCCCCCC[N+](C)(C)[O-]` [Example 5-1, Dimethylstearylamine oxide]: the Drug permeability is listed as 44.0%.

The compound `CCCCCCCCCCCCCCCCCCCCCC[N+](C)(C)[O-]` [Example 5-2, Dimethylbehenylamine oxide] came in with a Drug permeability of 28.6%.

`CCCCCCCCCCCC[N+](C)(C)[O-]` [Example 5-4, Dimethyllaurylamine oxide] registered a Drug permeability (Table 5-1, hydroquinone 1.0%, test substance 0.1%, ethanol 20%, 24 hours, 32° C.) of 9.4%.

`CCCCCCCCCCCCCC[N+](C)(C)[O-]` [Example 5-5, Dimethylmyristylamine oxide] returned a Drug permeability of 11.8%.

For `CCCCCCCCCCCCCCCCCC[N+]([O-])(CCO)CCO` [Example 5-3, Dihyroxyethylstearylamine oxide], the Drug permeability was determined as 30.5%.
